From patent publication US20240158446A1, “CYCLIC COMPOUND HAVING SELECTIVE INHIBITORY ACTION ON KRAS OVER HRAS AND NRAS” (CHUGAI SEIYAKU KABUSHIKI KAISHA, priority 2021, published 2024)
Where a SMILES comes first, the peptide text is derived from it. Bridges are numbered along the chain shown (N, C = ends). [ ]: non-standard residue; d: D form. The star is where a group is joined. hPhe(3-Cl-4-CF3) = N[C@@H](CCc1ccc(C(F)(F)F)c(Cl)c1)C(=O)O; NPrPhe(4-CF3) = CCCN[C@@H](Cc1ccc(C(F)(F)F)cc1)C(=O)O; NMeGly(cPent) = CN[C@H](C(=O)O)C1CCCC1; NMeD = CN[C@@H](CC(=O)O)C(=O)O; NMeL = CN[C@@H](CC(C)C)C(=O)O; Morpholide = C1CN(*)CCO1; Ac5c = NC1(C(=O)O)CCCC1; Sar = CNCC(=O)O

Key:
[1] = target: GDP-bound KRAS wild-type protein (Homo sapiens, UniProt P01116); assay: Binding to KRAS by surface plasmon resonance (SPR), Single Cycle Kinetics; details: SPR, Single Cycle Kinetics, GDP-bound KRAS wild-type protein; read-out: KRAS KD
GDP-bound KRAS wild-type protein, sequence (P01116 whole entry): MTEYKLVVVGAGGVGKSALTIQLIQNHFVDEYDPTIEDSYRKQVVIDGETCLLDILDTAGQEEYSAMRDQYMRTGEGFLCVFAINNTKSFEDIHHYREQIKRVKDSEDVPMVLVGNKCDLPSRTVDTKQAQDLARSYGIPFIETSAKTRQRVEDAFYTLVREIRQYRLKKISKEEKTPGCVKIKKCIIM

[2] = target: GDP-bound HRAS wild-type protein (Homo sapiens, UniProt P01112); assay: Binding to HRAS by surface plasmon resonance (SPR), Single Cycle Kinetics; details: ratio of KD for GDP-bound HRAS wild-type protein to KD for KRAS, SPR
GDP-bound HRAS wild-type protein, sequence (P01112 whole entry): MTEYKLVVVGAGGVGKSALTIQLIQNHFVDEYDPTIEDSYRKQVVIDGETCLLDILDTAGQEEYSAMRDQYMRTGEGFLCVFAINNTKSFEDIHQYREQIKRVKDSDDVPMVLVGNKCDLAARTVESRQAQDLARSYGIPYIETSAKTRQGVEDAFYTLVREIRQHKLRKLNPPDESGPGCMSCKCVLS

[3] = system: human lung cancer strain NCI-H441; assay: cells; details: NCI-H441, 96 h, read-out: NCI-H441 IC50 (nM), NCI-H441 cell proliferation, 4 days, CellTiter-Glo;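 further: cell proliferation inhibition after four days measured by CellTiter-Glo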
[4] = target: GDP-bound NRAS wild-type protein (Homo sapiens, UniProt P01111); assay: Binding to NRAS by surface plasmon resonance (SPR), Single Cycle Kinetics; details: ratio of KD for GDP-bound NRAS wild-type protein to KD for KRAS, SPR
GDP-bound NRAS wild-type protein, sequence (P01111 whole entry): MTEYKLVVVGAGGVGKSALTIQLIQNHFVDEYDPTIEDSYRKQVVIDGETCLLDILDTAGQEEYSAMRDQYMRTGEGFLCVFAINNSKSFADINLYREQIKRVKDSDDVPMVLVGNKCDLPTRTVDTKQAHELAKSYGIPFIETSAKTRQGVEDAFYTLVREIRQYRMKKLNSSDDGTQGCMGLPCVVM

| SMILES | Kd [1] | HRAS/KRAS (KD ratio) [2] | IC50 [3] | NRAS/KRAS (KD ratio) [4] |
| --- | --- | --- | --- | --- |
| CC[C@H](C)[C@@H]1NC(=O)[C@H](C2CC2)N(C)C(=O)C[C@@H](C(=O)N(C)C)N(C)C(=O)[C@H](C2CCCC2)N(C)C(=O)C2(CCC2)N(C)C(=O)[C@@H]2CCCN2C(=O)[C@H](CCc2cc(F)c(C(F)(F)F)c(F)c2)NC(=O)CN(C)C(=O)[C@H](Cc2ccc(C)cc2)N2CC/C=C\C[C@@H](C2=O)N(C)C(=O)CN(C)C1=O [PP1784] | 0.083 nM | B (a compound having 3 or more and less than 10 is denoted as B) | 7.8 nM | A (a compound having 10 or more and less than 20 is denoted as A) |
| CC[C@H](C)[C@@H]1NC(=O)[C@H](CC(C)C)N(C)C(=O)C[C@@H](C(=O)N(C)CC)N(C)C(=O)[C@H](C2CCCC2)N(C)C(=O)C2(CCC2)NC(=O)[C@@H]2C[C@H](C)CN2C(=O)[C@H](CCc2ccc(C(F)(F)F)c(OC)c2)NC(=O)CN(C)C(=O)[C@H](Cc2ccc(C)cc2)N2CC/C=C\C[C@@H](C2=O)N(C)C(=O)CN(C)C1=O [PP1904] | 0.12 nM | B (a compound having 3 or more and less than 10 is denoted as B) | 18.3 nM | A (a compound having 10 or more and less than 20 is denoted as A) |
| CC[C@H](C)[C@@H]1NC(=O)[C@H](CC)N(C)C(=O)C[C@@H](C(=O)N(C)CC)N(C)C(=O)[C@H](C2CCCC2)N(C)C(=O)C2(CC(C)(C)C2)NC(=O)[C@@H]2C[C@H](C)CN2C(=O)[C@H](CCc2ccc(C(F)(F)F)c(Cl)c2)NC(=O)CN(C)C(=O)[C@H](Cc2ccc(C)cc2)N2CC/C=C\C[C@@H](C2=O)N(C)C(=O)CN(C)C1=O [PP1874] | 0.13 nM | A (a compound having 10 or more and less than 20 is denoted as A) | 9.9 nM | A (a compound having 10 or more and less than 20 is denoted as A) |
| CC[C@H](C)[C@@H]1NC(=O)[C@H](CC)N(C)C(=O)C[C@@H](C(=O)N(C)C)N(C)C(=O)[C@H](C2CCCC2)N(C)C(=O)C2(CCC2)N(C)C(=O)[C@@H]2CCCN2C(=O)[C@H](CCc2cc(F)c(C(F)(F)F)c(F)c2)NC(=O)CN(C)C(=O)[C@H](Cc2ccc(C(F)(F)F)cc2)N2CC/C=C\C[C@@H](C2=O)N(C)C(=O)CN(C)C1=O [PP1780] | 0.065 nM | A (a compound having 10 or more and less than 20 is denoted as A) | 8.2 nM | A (a compound having 10 or more and less than 20 is denoted as A) |
| CC[C@H](C)[C@@H]1NC(=O)[C@H](CC2CCC2)N(C)C(=O)C[C@@H](C(=O)N(C)C)N(C)C(=O)[C@H](C2CCCC2)N(C)C(=O)C2(CC(C)(C)C2)NC(=O)[C@@H]2C[C@H](C)CN2C(=O)[C@H](CCc2cc(F)c(C(F)(F)F)c(F)c2)NC(=O)CN(C)C(=O)[C@H](Cc2ccc(C(F)(F)F)cc2)N2CC/C=C\C[C@@H](C2=O)N(C)C(=O)CN(C)C1=O [PP1684] | 0.15 nM | A (a compound having 10 or more and less than 20 is denoted as A) | 7.7 nM | A (a compound having 10 or more and less than 20 is denoted as A) |
| CC[C@H](C)[C@@H]1NC(=O)[C@H](C)N(C)C(=O)C[C@@H](C(=O)N(C)C)N(C)C(=O)[C@H](C2CCCC2)N(C)C(=O)C2(CC(C)(C)C2)NC(=O)[C@@H]2CC(F)(F)CN2C(=O)[C@H](CCc2cc(F)c(C(F)(F)F)c(F)c2)NC(=O)CN(C)C(=O)[C@H](Cc2ccc(C(F)(F)F)cc2)N2CC/C=C\C[C@@H](C2=O)N(C)C(=O)CN(C)C1=O [PP1707] | 0.037 nM | A (a compound having 10 or more and less than 20 is denoted as A) | 7.4 nM | AA (a compound having 20 or more is denoted as AA) |
| CCC[C@H]1C(=O)N[C@@H]([C@@H](C)CC)C(=O)N(C)CC(=O)N(C)[C@H]2C/C=C\CCN(C2=O)[C@@H](Cc2ccc(C(F)(F)F)cc2)C(=O)N(C)CC(=O)N[C@@H](CCc2cc(F)c(C(F)(F)F)c(F)c2)C(=O)N2C[C@H](OCC)C[C@H]2C(=O)NC2(CC(F)(F)C2)C(=O)N(C)[C@@H](C2CCCC2)C(=O)N(C)[C@H](C(=O)N(C)CC)CC(=O)N1C [PP1735] | 0.081 nM | A (a compound having 10 or more and less than 20 is denoted as A) | 2.2 nM | AA (a compound having 20 or more is denoted as AA) |
| C#CC[C@H]1C(=O)N[C@@H]([C@@H](C)CC)C(=O)N(C)CC(=O)N(C)[C@H]2C/C=C\CCN(C2=O)[C@@H](Cc2ccc(C(F)(F)F)cc2)C(=O)N(C)CC(=O)N[C@@H](CCc2cc(F)c(C(F)(F)F)c(F)c2)C(=O)N2C[C@H](OCC)C[C@H]2C(=O)NC2(CC(F)(F)C2)C(=O)N(C)[C@@H](C2CCCC2)C(=O)N(C)[C@H](C(=O)N(C)CCC)CC(=O)N1C [PP1737] | 0.11 nM | A (a compound having 10 or more and less than 20 is denoted as A) | 2.7 nM | A (a compound having 10 or more and less than 20 is denoted as A) |
| CCC[C@H]1C(=O)N[C@@H]([C@@H](C)CC)C(=O)N(C)CC(=O)N(C)[C@H]2C/C=C\CCN(C2=O)[C@@H](Cc2ccc(C(F)(F)F)cc2)C(=O)N(C)CC(=O)N[C@@H](CCc2cc(F)c(C(F)(F)F)c(F)c2)C(=O)N2C[C@H](OCC)C[C@H]2C(=O)NC2(CC(F)(F)C2)C(=O)N(C)[C@@H](C2CCCC2)C(=O)N(C)[C@H](C(=O)N(C)CCC)CC(=O)N1C [PP1736] | 0.13 nM | A (a compound having 10 or more and less than 20 is denoted as A) | 3.6 nM | A (a compound having 10 or more and less than 20 is denoted as A) |
| CCO[C@@H]1C[C@H]2C(=O)NC3(CC(C)(C)C3)C(=O)N(C)[C@@H](C3CCCC3)C(=O)N(C)[C@H](C(=O)N(C)CC)CC(=O)N(C)[C@@H](CC(C)C)C(=O)N[C@@H]([C@@H](C)OCC)C(=O)N(C)CC(=O)N(C)[C@H]3C/C=C\CCN(C3=O)[C@@H](Cc3ccc(C(F)(F)F)cc3)C(=O)N(C)CC(=O)N[C@@H](CCc3cc(F)c(C(F)(F)F)c(F)c3)C(=O)N2C1 [PP1919] | 0.23 nM | A (a compound having 10 or more and less than 20 is denoted as A) | 6.3 nM | A (a compound having 10 or more and less than 20 is denoted as A) |
| CCC[C@H]1C(=O)N[C@@H]([C@@H](C)CC)C(=O)N(C)CC(=O)N(C)[C@H]2C/C=C\CCN(C2=O)[C@@H](Cc2ccc(C(F)(F)F)cc2)C(=O)N(C)CC(=O)N[C@@H](CCc2cc(F)c(Cl)c(F)c2)C(=O)N2C[C@H](OCC)C[C@H]2C(=O)NC2(CC(C)(C)C2)C(=O)N(C)[C@@H](C2CCCC2)C(=O)N(C)[C@H](C(=O)N(C)C)CC(=O)N1C [PP1758] | 0.19 nM | A (a compound having 10 or more and less than 20 is denoted as A) | 6 nM | AA (a compound having 20 or more is denoted as AA) |
| CC[C@H](C)[C@@H]1NC(=O)[C@H](CC)N(C)C(=O)C[C@@H](C(=O)N(C)C)N(C)C(=O)[C@H](C2CCCC2)N(C)C(=O)C2(CC(C)(C)C2)NC(=O)[C@@H]2C[C@@H](C)CN2C(=O)[C@H](CCc2ccc(C(F)(F)F)c(OC)c2)NC(=O)CN(C)C(=O)[C@H](Cc2ccc(C)cc2)N2CC/C=C\C[C@@H](C2=O)N(C)C(=O)CN(C)C1=O [PP1838] | 0.1 nM | A (a compound having 10 or more and less than 20 is denoted as A) | 20 nM | A (a compound having 10 or more and less than 20 is denoted as A) |
| CCCN1C(=O)CN(C)C(=O)[C@H](C)NC(=O)[C@H]([C@@H](C)CC)NC(=O)[C@H](CC(C)C)N(C)C(=O)C[C@@H](C(=O)N2CCOCC2)N(C)C(=O)[C@H](C2CCCC2)N(C)C(=O)C2(CCCC2)NC(=O)[C@@H]2CCCN2C(=O)[C@H](CCc2ccc(C(F)(F)F)c(Cl)c2)NC(=O)CN(C)C(=O)[C@@H]1Cc1ccc(C(F)(F)F)cc1 [PP1971] ([NMeL]IA[Sar][NPrPhe(4-CF3)][Sar][hPhe(3-Cl-4-CF3)]P[Ac5c][NMeGly(cPent)][NMeD]-Morpholide; lactam N-11) | 5 nM | B (a compound having 3 or more and less than 10 is denoted as B) | 38 nM | B (a compound having 3 or more and less than 10 is denoted as B) |
| CC[C@H](C)[C@@H]1NC(=O)[C@H](CC(C)C)N(C)C(=O)C[C@@H](C(=O)N(C)C)N(C)C(=O)[C@H](C2CCCC2)N(C)C(=O)C2(CC(C)(C)C2)NC(=O)[C@@H]2CC(F)(F)CN2C(=O)[C@H](CCc2cc(F)c(C(F)(F)F)c(F)c2)NC(=O)CN(C)C(=O)[C@H](Cc2ccc(C(F)(F)F)cc2)N2CC/C=C\C[C@@H](C2=O)N(C)C(=O)CN(C)C1=O [PP1715] | 0.061 nM | A (a compound having 10 or more and less than 20 is denoted as A) | 2.7 nM | AA (a compound having 20 or more is denoted as AA) |
